Experimental findings from the METLIN SMRT retention time set (Domingo-Almenara et al. 2019) are described below.

Each structure is given as a SMILES string.

The data set is described as follows: gradient 5% acetonitrile 3 min, to 50% in 2 min, to 85% in 15 min, held 3 min, 100 µL/min. To be noted: column: Zorbax Extend-C18 2.1 x 50 mm; eluents: water / acetonitrile, 0.1% formic acid. The procedure, abridged: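 Over 3 months, pure standards in mixtures of ~100 molecules were run by HPLC coupled to a quadrupole time-of-flight mass spectrometer in positive and negative ionization mode. The column was a Zorbax Extend-C18 (2.1 × 50 mm, 1.8 μm) at 100 μL/min, eluted with water and acetonitrile each holding 0.1% formic acid, with 40 μL dead and 900 μL dwell volumes. Retention time was determined from adduct peaks chosen by software and checked manually.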
As to `Cc1cccc(Cn2nc3ccc(S(=O)(=O)N4CCCC4)cn3c2=O)c1`, the RP-LC retention time is 881 s.

The compound `COCc1nc2cccnc2n1C1CCN(C(=O)Nc2ccc(OC)c(OC)c2)CC1` had an RP-LC retention time of 638 s.

For `Nc1ncncc1-c1ccc2ccccc2c1`, the RP-LC retention time came out at 668 s.

For `O=C(Cn1cnc2cc3c(cc21)OCCO3)Nc1ccc2c(c1)OCCCO2`, the RP-LC retention time was 622 s.

Compound `Cc1nc(-c2ccccc2F)sc1C(=O)NC(C)C` returned an RP-LC retention time of 888 s.

The compound `Cc1ccc(NC(=O)C(=O)c2ccc[nH]2)c(Br)c1` gave an RP-LC retention time of 1060 s.

In the case of `COCc1c(C(=O)N2CCC3(CCC3O)CC2)noc1C` (centres undefined), the RP-LC retention time stood at 618 s.

`CCCOc1nc2ccccc2nc1N1CCCC(C(=O)Nc2ccc(OC)cc2OC)C1` (centres undefined) showed an RP-LC retention time of 1280 s.

Take `CCOC(=O)C1CCc2sc(NC(=O)CNC(=O)c3ccc(=O)[nH]c3)nc21` (centres undefined): the RP-LC retention time was found to be 591 s.

`O=C(Nc1cccc(-c2cn3cccnc3n2)c1)c1c(F)cccc1F` displayed an RP-LC retention time of 668 s.

For the compound `CC(C)NC(=O)c1ccc2c(c1)nc(CN(C)C(=O)Nc1ccc3c(c1)OCCO3)n2C`, the RP-LC retention time worked out at 616 s.

As to `Cn1cc(S(=O)(=O)N2CCC(C(=O)NCc3ccc(F)cc3)CC2)cc1C(=O)N1CCCC1`, the RP-LC retention time turned out to be 722 s.

Compound `COc1ccccc1NS(=O)(=O)c1ccc2c(c1)CCCC(=O)N2` gave an RP-LC retention time of 716 s.

The compound `Cc1cccc(CNC2=NCCNC23CCN(S(=O)(=O)c2ccccc2C)CC3)c1` displayed an RP-LC retention time of 752 s.

In turn, `CCOC(=O)c1cccc(NC(=O)Cn2ccc3ccc(-c4nnc(C)o4)cc32)c1` gave an RP-LC retention time of 829 s.

Turning to `Cc1nc(C)c(C(=O)N2CCCC(n3c(C)cnc3C3CCC3)C2)s1` (centres undefined), the RP-LC retention time is 591 s.

With `COC[C@@H]1CN(Cc2ccc3[nH]ccc3c2)C[C@H]1c1ccncc1`, the RP-LC retention time was found to be 581 s.

`COc1ccc(-c2nnc(-c3cc(S(=O)(=O)NCc4ccco4)ccc3Cl)o2)cc1` yielded an RP-LC retention time of 964 s.

For the compound `O=C(Cn1cnc(-c2ccc(Cl)cc2)cc1=O)NCc1ccccc1OC(F)(F)F`, the RP-LC retention time came out at 910 s.

In turn, `CN(Cc1nc2cc(C(=O)N3CCCC3)ccc2n1C)C(=O)Nc1ccccc1Br` showed an RP-LC retention time of 644 s.

Regarding `CC(C)C(=O)N1CCc2cc(C(=O)N3CCCC3)ccc21`, the RP-LC retention time is 720 s.

Compound `COc1cccc(NC(=O)C2CCCCN2S(=O)(=O)c2ccc(F)cc2)c1` (centres undefined) had an RP-LC retention time of 1000 s.

`CC1CCN(c2nccnc2Oc2ccc(C(=O)NCc3ccco3)cc2)CC1` showed an RP-LC retention time of 979 s.

The compound `Cc1cc(C)cc(S(=O)(=O)NCc2c(-c3ccccc3)nc3sc(C)nn23)c1` displayed an RP-LC retention time of 921 s.

Take `COc1ccc(NS(=O)(=O)c2cc3n(c2)CCCNC3=O)c(C)c1`: the RP-LC retention time was 640 s.

Compound `Fc1ccc(Cc2nc3nccc(-c4cccs4)n3n2)cc1` came in with an RP-LC retention time of 915 s.

`COc1ccc(-c2noc(-c3ccc(N4CCN(c5ccccc5OC)CC4)nc3)n2)cc1` came in with an RP-LC retention time of 1310 s.

In the case of `Cc1nnc2c(=O)n(CC(=O)NCc3ccccc3C(F)(F)F)c3cccnc3n12`, the RP-LC retention time worked out at 734 s.

For `CCOc1ccc(-c2cc3c(=O)n(Cc4nc(-c5cccc(C(F)(F)F)c5)no4)ncn3n2)cc1`, the RP-LC retention time came to 1250 s.

Compound `COc1cc(C2C(C(=O)N3CCCCC3)=C(C)NC3=C2C(=O)CCC3)ccc1OC(C)=O` (centres undefined) gave an RP-LC retention time of 647 s.

Compound `COc1ccc(C)cc1NC(=O)Cc1csc2nc(-c3cccc(Br)c3)cn12` came in with an RP-LC retention time of 1060 s.

`CC(C)C(=O)Nc1cc2c(cc1N(C)C)n(C)c(=O)c(=O)n2C` gave an RP-LC retention time of 631 s.

`COCCNC(=O)C1Cc2cc(C(F)(F)F)ccc2N2CCN(C(=O)c3ccco3)CC12` (centres undefined) had an RP-LC retention time of 767 s.

On to `COCCNC(=O)C1CN(S(=O)(=O)c2ccccc2)CC12CCCCC2` (centres undefined), for which the RP-LC retention time is 811 s.

As to `CN(C(=O)c1cn(-c2ccc(-c3nc(C4CC4)no3)cn2)cn1)C1CCCCC1`, the RP-LC retention time was 971 s.

Take `O=C(NC1CCCC1)C1CCN(c2nc3ccc(-c4cccnc4)nc3s2)CC1`: the RP-LC retention time turned out to be 654 s.

As for `O=c1c(S(=O)(=O)N2CCCCCC2)cccn1Cc1cc(F)cc(F)c1`, the RP-LC retention time came to 999 s.

`O=C(NC1CC(=O)N(Cc2ccccc2)C1)c1ccco1` (centres undefined) registered an RP-LC retention time of 667 s.

Take `COc1ccccc1Cc1nc(-c2cn(-c3ccc(F)cc3)nn2)no1`: the RP-LC retention time turned out to be 1020 s.

Consider `COCCCNC(=O)C1CCN(Cc2cc3ccccc3n2Cc2ccccc2Cl)CC1`, for which the RP-LC retention time was found to be 713 s.

`CNC(=O)C1Cc2ccccc2N1S(=O)(=O)c1cccc(C(F)(F)F)c1` (centres undefined) yielded an RP-LC retention time of 802 s.

Consider `COc1ccc(CN2C(=O)CC(c3ccc(OC)c(OC)c3)CC2=O)cc1`, for which the RP-LC retention time came to 879 s.

For the compound `Cc1ccc(-n2nc(C(=O)N3CCN(c4ncccn4)CC3)c3ncn(C)c(=O)c32)cc1`, the RP-LC retention time amounted to 726 s.

Compound `Cc1cc(Cl)ccc1NC(=O)C1CCN(C(=O)c2ncn3c2COC(c2ccc(F)cc2)C3)CC1` (centres undefined) yielded an RP-LC retention time of 871 s.

Compound `COc1ccc(NC(=O)CN2C(=O)C3CCCN3C(=O)c3ccc(F)cc32)cc1` (centres undefined) displayed an RP-LC retention time of 693 s.

As to `O=C(NCc1ccc(F)cc1Cl)c1cn(-c2ccc(NC(=O)C3CC3)cn2)cn1`, the RP-LC retention time stood at 814 s.

Consider `O=C(c1ccc2ccnc(N3CCN(c4ccc(F)cc4)CC3)c2c1)N1CCCCC1`, for which the RP-LC retention time was determined as 792 s.

Consider `Cc1cccc(N2CCN(C(=O)C3CCN(S(=O)(=O)c4cn(C(C)C)cn4)CC3)CC2)c1C`, for which the RP-LC retention time worked out at 929 s.

Compound `Cc1cc(C(=O)N2CC(c3nc(-c4ccccn4)no3)C2)no1` returned an RP-LC retention time of 639 s.

`Fc1ccc(Nc2c(-c3ccc(Br)cc3)nc3cnccn23)cc1`: the RP-LC retention time was 980 s.

In turn, `O=C(Cc1csc(NC(=O)C2CC2)n1)NCc1ccccn1` registered an RP-LC retention time of 519 s.

As for `Cc1ccc(NC(=O)N2CCCC(C)(C(=O)NCc3ccccc3)C2)cc1F` (centres undefined), the RP-LC retention time worked out at 945 s.

Turning to `CCC(C)NC(=O)C1CCN(S(=O)(=O)c2ccc3c(c2)sc(=O)n3C)CC1` (centres undefined), the RP-LC retention time is 757 s.

Compound `O=C(Cc1nnc(-c2cccc(F)c2)o1)NCC1CC1` yielded an RP-LC retention time of 722 s.

On to `COc1ccc(Cl)cc1NC(=O)c1cn2c(n1)CCCC2`, for which the RP-LC retention time was found to be 726 s.

`CCOc1c(Br)cc(C(=O)Nc2ccc(C(=O)O)cc2)cc1C(=O)c1ccc(C)cc1` showed an RP-LC retention time of 1130 s.

Compound `Cc1ccc2c(c1)N(S(C)(=O)=O)CCC(C(=O)Nc1ccc(Cl)cc1C)O2` (centres undefined) came in with an RP-LC retention time of 1000 s.

As for `CC1=C(c2ccc(C)c(C)c2)S(=O)(=O)N=C1N1CCCN(C(=O)CC(C)C)CC1`, the RP-LC retention time was found to be 915 s.

On to `O=C(NCc1ccccc1)C1CCN(C(=O)c2ncn3c2COC(c2ccc(Cl)cc2)C3)CC1` (centres undefined), for which the RP-LC retention time was 760 s.

Consider `COc1ccc(-c2ccnn2-c2ccc(SCc3ccccc3)nn2)cc1`, for which the RP-LC retention time was 1320 s.

`CN(C)C(CNC(=O)c1cc(-c2ccc(Cl)cc2)on1)c1cccs1` (centres undefined) gave an RP-LC retention time of 728 s.

With `Cc1cccc(C(=O)NC(C)C(=O)Nc2nc3ccccc3[nH]2)c1` (centres undefined), the RP-LC retention time stood at 648 s.

Compound `Cc1noc(C)c1CN1CCC(NC(=O)c2ccc(F)cc2F)C1` (centres undefined) returned an RP-LC retention time of 580 s.

With `O=C(Cn1c(CO)cnc1SCc1ccc(Cl)c(Cl)c1)NC1CC1`, the RP-LC retention time came to 585 s.

Compound `CC(C)CC(=O)N(C)CCc1noc(-c2ccc(C(=O)N3CCOCC3)cc2)n1` showed an RP-LC retention time of 695 s.

With `CC1CCN(C(=O)c2cn(-c3cc(-c4nc(C(C)C)no4)ccn3)cn2)CC1`, the RP-LC retention time was 640 s.

`CCC1=NS(=O)(=O)c2cccnc2N1c1ccc2c(c1)OCCO2` gave an RP-LC retention time of 800 s.

`Cc1ccccc1NC(=O)N1C[C@@H]2C[C@H](NC(=O)c3cccs3)[C@H]1C2`: the RP-LC retention time turned out to be 706 s.

For the compound `Cc1nn(-c2ccc(Cl)cc2)c(C)c1S(=O)(=O)N1CCN(c2ccccn2)CC1`, the RP-LC retention time was determined as 747 s.

For `CCOc1ccc(C(=O)N2CCCC2c2nc(-c3ccc(F)cc3F)no2)cc1` (centres undefined), the RP-LC retention time worked out at 1010 s.

Take `CO[C@H]1C(=O)N(C2CCN(S(=O)(=O)c3cccnc3)CC2)[C@H]1c1ccncc1`: the RP-LC retention time turned out to be 579 s.

In the case of `NCCC1CCN(C(=O)Nc2cc(F)cc(F)c2)CC1`, the RP-LC retention time was 599 s.

`CCc1cccc(C)c1NC(=O)Cn1c(C)nc2c(sc3nc(-c4ccccc4)ccc32)c1=O` yielded an RP-LC retention time of 1110 s.

`COc1ccc(NC(=O)N2CCN(c3nc4ccncc4n(CC(C)C)c3=O)CC2)cc1` yielded an RP-LC retention time of 587 s.

In turn, `COc1ccc(-c2cc(N3CCN(C(=O)Cc4ccc(Br)cc4)CC3)n[nH]2)cc1` yielded an RP-LC retention time of 842 s.

`CCN1C(=O)c2cc(S(=O)(=O)Nc3ccccc3C)ccc2Oc2cccnc21` returned an RP-LC retention time of 1000 s.

`COc1ccc2nc3cc(Cl)ccc3c(C#N)c2c1` showed an RP-LC retention time of 1260 s.

`COCC(=O)Nc1cnc(-c2ccc(Cl)cc2)nc1` yielded an RP-LC retention time of 857 s.

Turning to `O=C(NCc1ccc(Br)cc1)c1ccc(-c2cncnc2)nc1`, the RP-LC retention time came out at 765 s.
